Data published in patent publication US20260078099A1, “COMPOUND, PREPARATION METHOD THEREOF, AND LIPID NANOPARTICLE AND PHARMACEUTICAL COMPOSITION” (priority 2023, published 2026).

Legend:
[1] = LNP size and PDI by dynamic light scattering; format: physicochemical; conditions: mRNA LNP, cationic lipid/DSPC/cholesterol/PEG-lipid 50:10:38.5:1.5
LNP zeta potential = format: physicochemical; conditions: mRNA LNP
[2] = LNP encapsulation efficiency (Quant-it Ribogreen); format: physicochemical; conditions: mRNA LNP, cationic lipid/DSPC/cholesterol/PEG-lipid 50:10:38.5:1.5
mice = assay: Bioluminescent study, intramuscular injection of F-luc mRNA LNPs; format: in vivo; conditions: F-luc luminescence flux normalized to MC3; 0.25 mg/kg intramuscular, mice n=3, 6-hour time point
How it was run: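 Mice (n=3) received LNP-formulated F-luc mRNA at 0.25 mg/kg intramuscularly. Bioluminescence was read 6 h after dosing. Test LNPs were made with an MC3 formulation, and PBS served as control in some groups.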

Row | SMILES | PDI [1] | Size (nm) [1] [nm] | Zeta potential (mV) (LNP zeta potential) | Encapsulation efficiency (%) [2] [%] | Relative Total flux (mice)
1 | CCCCCCCC(C(=O)NCCCCCCCCCC(=O)OC(CCCCCC)CCCCCC)N(CCCN(CCO)C1CCCCC1)C(=O)CCCCCCCCCC(=O)OC(CCCCCC)CCCCCC (centres unmarked) [Compound B14] | 0.13 | 76.67 | 2.73 | 89.01 | A (A: ≥2)
2 | CCCCCCCC(C(=O)NCCCCCCCCCC(=O)OC(CCCCCC)CCCCCC)N(CCN(CCO)C1CCCCC1)C(=O)CCCCCCCCCC(=O)OC(CCCCCC)CCCCCC (centres unmarked) [Compound B15] | 0.182 | 87.64 | 2.43 | 95.93 | A (A: ≥2)
3 | CCCCCCCC(C(=O)NCCCCCCCCCC(=O)OC(CCCCCC)CCCCCC)N(CCN1CCN(CCO)CC1)C(=O)CCCCCCCCCC(=O)OC(CCCCCC)CCCCCC (centres unmarked) [Compound B16] | 0.593 | 57.19 | 5.42 | 94.62 | A (A: ≥2)
4 | CCCCCCCC(C(=O)NCCCCCCCCCC(=O)OC(CCCCCC)CCCCCC)N(CCCN1CCN(CCO)CC1)C(=O)CCCCCCCCCC(=O)OC(CCCCCC)CCCCCC (centres unmarked) [Compound B17] | 0.185 | 64.2 | 14.20 | 92.99 | A (A: ≥2)
5 | CCCCCCCC(C(=O)NCCCCCCCCCC(=O)OC(CCCCCC)CCCCCC)N(CCn1ccnc1)C(=O)CCCCCCCCCC(=O)OC(CCCCCC)CCCCCC (centres unmarked) [Compound B18] | 0.187 | 80.68 | 4.79 | 81.99 | A (A: ≥2)
6 | CCCCCCCC(C(=O)NCCCCCCCCCC(=O)OC(CCCCCC)CCCCCC)N(CCCn1ccnc1)C(=O)CCCCCCCCCC(=O)OC(CCCCCC)CCCCCC (centres unmarked) [Compound B20] | 0.391 | 93.23 | −2.36 | 93.73 | A (A: ≥2)
7 | CCCCCCCC(C(=O)NCCCCCCCCCC(=O)OC(CCCCCC)CCCCCC)N(CCCNC(=S)N(C)C)C(=O)CCCCCCCCCC(=O)OC(CCCCCC)CCCCCC (centres unmarked) [Compound B21] | 0.388 | 84.45 | 6.22 | 93.97 | B (B: ≥1 and <2)
8 | CCCCCCCC(C(=O)NCCCCCCCCCC(=O)OC(CCCCCC)CCCCCC)N(CCCNc1c(NC)c(=O)c1=O)C(=O)CCCCCCCCCC(=O)OC(CCCCCC)CCCCCC (centres unmarked) [Compound B22] | 0.165 | 141.8 | −3.48 | 95.03 | B (B: ≥1 and <2)
9 | CCCCCCCC(C(=O)NCCCCCCCCCC(=O)OC(CCCCCC)CCCCCC)N(COC(=O)CCN(C)C)C(=O)CCCCCCCCCC(=O)OC(CCCCCC)CCCCCC (centres unmarked) [Compound B23] | 0.214 | 68.16 | 12.50 | 93.95 | B (B: ≥1 and <2)
10 | CCCCCCCC(C(=O)NCCCCCCCCCC(=O)OC(CCCCCC)CCCCCC)N(CCOC(=O)CCN(C)C)C(=O)CCCCCCCCCC(=O)OC(CCCCCC)CCCCCC (centres unmarked) [Compound B24] | 0.245 | 68.83 | −9.96 | 93.57 | A (A: ≥2)
11 | CCCCCCCC(C(=O)NCCCCCCCCCC(=O)OC(CCCCCC)CCCCCC)N(CCOC(=O)CCN1CCCC1)C(=O)CCCCCCCCCC(=O)OC(CCCCCC)CCCCCC (centres unmarked) [Compound B25] | 0.095 | 64.2 | −3.38 | 69.52 | A (A: ≥2)
12 | CCCCCCCCNC(=O)C(CCCCCCCC)N(CCCN(CCO)CCO)C(=O)CCCCCCC(=O)OC(CCCCCCCC)CCCCCCCC (centres unmarked) [Compound B26] | 0.22 | 105.63 | −1.65 | 92.99 | D (D: <0.1.)
13 | CCCCCCCCNC(=O)C(CCCCCCCC)N(CCN(CC)CCO)C(=O)CCCCCCC(=O)OC(CCCCCCCC)CCCCCCCC (centres unmarked) [Compound B29] | 0.10 | 62.10 | 1.69 | 93.73 | A (A: ≥2)
14 | CCCCCCCCNC(=O)C(CCCCCCCC)N(CCCN(C)CCO)C(=O)CCCCCCC(=O)OC(CCCCCCCC)CCCCCCCC (centres unmarked) [Compound B30] | 0.08 | 64.27 | 3.81 | 93.97 | A (A: ≥2)
15 | CCCCCCCCNC(=O)C(CCCCCCCC)N(CCN(C)CCO)C(=O)CCCCCCC(=O)OC(CCCCCCCC)CCCCCCCC (centres unmarked) [Compound B31] | 0.10 | 61.00 | 4.83 | 95.03 | A (A: ≥2)
16 | CCCCCCCCNC(=O)C(CCCCCCCC)N(CCN(CCO)CCO)C(=O)CCCCCCC(=O)OC(CCCCCCCC)CCCCCCCC (centres unmarked) [Compound B32] | 0.32 | 119.93 | 7.87 | 93.95 | A (A: ≥2)
17 | CCCCCCCC/C=C\CCCCCCCCNC(=O)C(CCCCCCCC)N(CCCCCCCC/C=C\CCCCCCCC)C(=O)CCCN(C)C (centres unmarked) [Compound C1] | 0.108 | 60.62 | −9.90 | 82.31 | B (B: ≥1 and <2)
18 | CCCCC/C=C\C/C=C\CCCCCCCCNC(=O)C(CCCCCCCC)N(CCCCCCCC/C=C\C/C=C\CCCCC)C(=O)CCCN1CCN(C)CC1 (centres unmarked) [Compound C5] | 0.198 | 64.58 | −14.75 | 91.26 | D (D: <0.1.)
19 | CCCCCC/C=C\CCCCCCCC(C(=O)NCCCCCCCC/C=C\CCCCCCCC)N(CCCN(C)C)C(=O)CCCCCCC/C=C\CCCCCCCC (centres unmarked) [Compound C8] | 0.24 | 78.44 | −0.77 | 82.17 | A (A: ≥2)
20 | CCCCCCCCCCCNC(=O)C(CCCCCCCC)N(CCN(C)CCN(C(=O)CCCCCCCCCC(=O)OC(CCCCCC)CCCCCC)C(CCCCCCCC)C(=O)NCCCCCCCCCC)C(=O)CCCCCCCCCC(=O)OC(CCCCCC)CCCCCC (centres unmarked) [Compound D4] | 0.163 | 113.2 | −5.91 | 43.24 | C (C: ≥0.1 and <1)
21 | CCCCCCC(CCCCCC)OC(=O)CCCCCCCCCNC(=O)CN(CCN(C)CCN(CC(=O)NCCCCCCCCCC(=O)OC(CCCCCC)CCCCCC)C(=O)CCCCCCCCCC(=O)OC(CCCCCC)CCCCCC)C(=O)CCCCCCCCCC(=O)OC(CCCCCC)CCCCCC [Compound D5] | 0.183 | 78.42 | −17.80 | 96.72 | A (A: ≥2)
22 | CCCCCCC(CCCCCC)OC(=O)CCCCCCCCCNC(=O)C(CCCCCCCCCC(=O)OC(CCCCCC)CCCCCC)N(CCCN(CCO)CCO)C(=O)CCCN(C)CCO (centres unmarked) [Compound E2] | 0.143 | 78.64 | −9.45 | 91.65 | C (C: ≥0.1 and <1)
23 | CCCCCCC(CCCCCC)OC(=O)CCCCCCCCCNC(=O)C(CCCCCCCCCC(=O)OC(CCCCCC)CCCCCC)N(CCCN(CCO)CCO)C(=O)CCCN(C)C (centres unmarked) [Compound E3] | 0.166 | 93.07 | −2.06 | 89.28 | C (C: ≥0.1 and <1)
24 | CCCCCCC(CCCCCC)OC(=O)CCCCCCCCCNC(=O)C(CCCCCCCCCC(=O)OC(CCCCCC)CCCCCC)N(CCCN(CCO)CCO)C(=O)CCCN(CC)CC (centres unmarked) [Compound E4] | 0.205 | 95.73 | 5.03 | 95.18 | A (A: ≥2)
25 | CCCCCCC(CCCCCC)OC(=O)CCCCCCCCCNC(=O)C(CCCCCCCCCC(=O)OC(CCCCCC)CCCCCC)N(CCCN(C)CCO)C(=O)CCCN(C)CCO (centres unmarked) [Compound E5] | 0.183 | 84.36 | −19.40 | 93.90 | B (B: ≥1 and <2)
26 | CCCCCCC(CCCCCC)OC(=O)CCCCCCCCCNC(=O)C(CCCCCCCCCC(=O)OC(CCCCCC)CCCCCC)N(CCCN(C)C)C(=O)CCCN(C)C (centres unmarked) [Compound E6] | 0.246 | 81.59 | −6.48 | 96.54 | C (C: ≥0.1 and <1)
27 | CCCCCCC(CCCCCC)OC(=O)CCCCCCCCCNC(=O)C(CCCCCCCCCC(=O)OC(CCCCCC)CCCCCC)N(CCCN(CC)CC)C(=O)CCCN(CC)CC (centres unmarked) [Compound E7] | 0.13 | 95.52 | −16.13 | 92.11 | C (C: ≥0.1 and <1)
28 | CCCCCCC(CCCCCC)OC(=O)CCCCCCCCCNC(=O)C(CCCCCCCCCC(=O)OC(CCCCCC)CCCCCC)N(CCCN1CCCC1)C(=O)CCCN1CCCC1 (centres unmarked) [Compound E8] | 0.182 | 92.75 | −18.58 | 96.30 | B (B: ≥1 and <2)
